Measurements reported in publication PMC11325555, “Interaction of Bisphenol A and Its Analogs with Estrogen and Androgen Receptor from Atlantic Cod (Gadus morhua)” (Environmental Science & Technology, 2024).
pEC50, pIC50: −log10 of the molar value.

Assays:
[1] = target: T1, Atlantic cod androgen receptor alpha (gmAra) LBD (Gadus morhua, UniProt D5FIC7); test: Luciferase reporter gene assay, gmAra antagonism (antiandrogenic activity), coexposure with 5 nM testosterone; type: cell-based; details: for effect on testosterone-mediated gmAra activity, result in words: BPs 0.003–50 μM with 5 nM testosterone; for pIC50: gmAra IC50, in the presence of 5 nM testosterone (EC20)
T1 sequence (D5FIC7 409-718): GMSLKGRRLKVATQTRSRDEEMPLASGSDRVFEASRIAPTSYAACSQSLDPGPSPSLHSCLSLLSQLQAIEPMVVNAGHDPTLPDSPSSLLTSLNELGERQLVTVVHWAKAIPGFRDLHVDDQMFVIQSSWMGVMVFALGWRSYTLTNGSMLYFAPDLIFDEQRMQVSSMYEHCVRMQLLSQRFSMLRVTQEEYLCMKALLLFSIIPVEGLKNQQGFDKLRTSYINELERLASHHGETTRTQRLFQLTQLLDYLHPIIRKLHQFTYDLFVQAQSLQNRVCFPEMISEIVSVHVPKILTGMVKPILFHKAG
Procedure: (§1) Ligand activation of gmEra and gmAra was studied with a luciferase reporter gene assay in COS-7 cells transiently transfected with the pCMX-GAL4(DBD)-gmEra(LBD) or pCMX-GAL4(DBD)-gmAra(LBD) plasmid by using the TransIT-LT1 reagent (TransIT-LT1 Transfection Reagent, Mirus). Cells were seeded into 96-well plates (5000 cells/well) and incubated for 24 h before cotransfection with the plasmid mixture (100 ng/well). The plasmid mixture contained GAL4-UAS luciferase reporter plasmid (tk-(MH100)x4 luc), the pCMX-GAL4(DBD)-gmEra(LBD) or pCMX-GAL4(DBD)-gmAra(LBD) receptor plasmids (2:1 reporter:receptor plasmid mass ratio), and a plasmid constitutively producing the β-galactosidase enzyme used for normalization of transfection efficiency (pCMV- β-Gal). […] The maximum DMSO/methanol concentrations in the exposure wells were 0.5% (v/v) in DMEM medium without phenol red (Sigma-Aldrich). After exposure, cells were lysed, and luciferase and beta-galactosidase activities were measured as luminescence and absorbance (420 nm) after the addition of luciferin and ONPG substrates, respectively, using an Enspire Multimode plate reader (PerkinElmer, Waltham, Massachusetts, USA).
(§2) The dose–response curves were created using nonlinear regression and the four-parameter logistic fit in Graphpad Prism v.9. *p < 0.05 versus solvent control by ANOVA and Dunnett’s multiple comparison post hoc test.

[2] = test system: Er-mediated synthesis of Vtg in Atlantic cod PCLS; test: Vitellogenin ELISA in media of exposed precision-cut liver slices (PCLS); type: cell-based, Atlantic cod (Gadus morhua); details: 96 h; for Vtg synthesis in PCLS, result in words: 1, 10, 100 μM bisphenols or 0.1, 1, 10 nM EE2, Vtg in media by ELISA; for concentration at which maximum Vtg levels were observed: 1, 10, 100 μM tested
Procedure: PCLS culturing and exposure assays were performed essentially as described previously,[42],[56] with the modifications described below. Juvenile Atlantic cod were killed by a blow to the head, and the liver was dissected out and placed in a Petri dish containing ice-cold PCLS buffer (122 mM NaCl, 4.8 mM KCl, 1.2 mM MgSO4, 11 mM Na2HPO4, 3.7 mM NaHCO3, […]). The liver was then cut into small tissue blocks (approximately 3 cm long, 2 cm wide, and 1–3 cm high) and kept in ice-cold complete culture medium (L-15 medium supplemented with 10% FBS and 1× antibiotic-antimycotic solution). For slicing, the tissue block was fixed on the specimen plate of a Leica vibrating blade microtome VT1200 (Leica, Wetzlar, Germany) using Loctite Super Glue (Clas Ohlson, Bergen, Norway), and 250 μm thick tissue slices were cut (under ice-cold PCLS buffer) and kept in a Petri dish with ice-cold complete culture medium. Using a sterile razor blade, the tissue slices (2 × 3 cm) were then divided into smaller pieces (approximately 4 × 4 mm) and distributed into a 12-well cell culture plate (Sarstedt, Nümbrecht, Germany), each well containing 6 slices and 2 mL of complete culture medium. The PCLS were preincubated at 10 °C for 2 h before exposure. After preincubation, 1 mL of the medium was removed from each well and replaced by 1 mL of fresh complete culture medium containing 2x the final desired concentration and incubated at 10 °C for 96 h with shaking at 50 rpm. […] At the end of the exposure, slices were collected with tweezers and rinsed briefly in cold PBS. Excess PBS was removed by carefully touching a dry surface of the culture plate with the slice 4 times before measuring the weight in a preweighed cryotube. The slices were then snap-frozen in liquid N2 and stored at −80 °C. The media was also sampled and stored at −80 °C for viability (LDH) assay and vitellogenin ELISA.
Vitellogenin (Vtg) in media collected from exposed PCLS was quantified using the Atlantic Cod Vitellogenin ELISA kit (Biosense Laboratories AS, Bergen, Norway) according to manufacturer’s instructions. Vtg was quantified in 100 μL of undiluted media and normalized to the weight of the liver tissue. Statistical analysis of ELISA data was performed with GraphPad Prism Software version 9 (GraphPad Prism, La Jolla, CA, USA) by using one-way ANOVA followed by Dunnett’s test (for normally distributed data) or Friedman test followed by Dunn’s test (for non-normally distributed data), as described previously for PCLS experiments (Yadetie et al.[42]).
Figure 5 Relative vitellogenin production in Atlantic cod precision-cut liver slices (PCLS) exposed to bisphenols and EE2. PCLS were exposed to 1, 10, and 100 μM bisphenols or 0.1, 1, and 10 nM EE2, for 96 h. EE2 was included as positive control for activation of the gmEra signaling pathway. Levels of induced Vtg in the PCLS media were measured using ELISA (Cod Vitellogenin ELISA kit, Biosense Laboratories AS). The data represents mean ± SEM of fold change (compared to solvent control) of Vtg levels from 4 to 10 fish. n = 8–10 for all bisphenols except for BADGE (n = 4). Asterisks denote significant changes (p < 0.05) compared to solvent control.

[3] = test system: COS-7 cells; test: Cytotoxicity toward COS-7 cells (resazurin and CFDA-AM assays); details: 24 h; for concentration that affected COS-7 cell viability: binary combination with 0.003 μM EE2
Excerpt: The cytotoxicity of the test compounds toward COS-7 cells was monitored by measuring the metabolic activity and membrane integrity through the conversion of resazurin and 5-carboxyfluorescein diacetate acetoxymethyl ester (CFDA-AM), respectively, as described previously by Pérez-Albaladejo et al.[54] […]
used as a negative control.
Figure S2. Assessing metabolic activity (resazurin) and cell membrane integrity (CFDA-AM) in COS-7 cells after BP exposures. COS-7 cells were exposed to three concentrations of each BP, as well as three concentrations […]
exposed at 37 °C and 5 % CO2 for 24 hours. Cytotoxicity is indicated by a reduction in the fluorescent signal (denoted as % Cell survival) relative to the solvent control (DMSO, dotted line) adjusted to 100 %. A reduction in cell viability exceeding 20 % is generally regarded as cytotoxic (indicated with a red dotted line) (ISO, I. 2009.
10993–5: 2009 Biological evaluation of medical devices—part 5: tests for in vitro cytotoxicity. International Organization for Standardization, Geneva.).
(1 picture or pasted object on this page, not shown here)

[4] = target: T2, Atlantic cod estrogen receptor alpha (gmEra) LBD (Gadus morhua, UniProt U5ILH7); test: Luciferase reporter gene assay, gmEra agonism (estrogenic activity) in transfected COS-7 cells
T2 sequence (U5ILH7 170-455): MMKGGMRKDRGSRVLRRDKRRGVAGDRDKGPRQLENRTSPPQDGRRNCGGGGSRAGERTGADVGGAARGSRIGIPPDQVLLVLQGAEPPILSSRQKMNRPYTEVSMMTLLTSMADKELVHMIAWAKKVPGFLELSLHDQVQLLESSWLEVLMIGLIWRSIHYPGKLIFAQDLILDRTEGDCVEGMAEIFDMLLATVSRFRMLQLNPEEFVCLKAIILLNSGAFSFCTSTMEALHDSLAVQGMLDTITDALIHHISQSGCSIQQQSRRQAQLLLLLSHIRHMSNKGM
Procedure: as §1
Luciferase reporter gene assays were established with COS-7 cells transiently producing the LBD of gmEra (Figure S1) for evaluating the estrogenic potential of 12 bisphenols.
COS-7 cells transiently transfected with gmEra-LBD were exposed to EE2 (open circles), BPA (black circles), and 11 different BPA analogs (red squares and as indicated) at increasing concentrations. Responses are presented as mean fold activation in luciferase activity in comparison to solvent-exposed cells ± SEM from three independent experiments with three technical replicates (n = 9). The dose–response curves were created using nonlinear regression and the four parameter logistic fit in Graphpad Prism v.9. For comparison, the dose–response curve of BPA (black line) is indicated together with each individual BP tested (red line). *p < 0.05 versus solvent control by one-way ANOVA and Dunnett’s multiple comparison post hoc test.

[5] = target: T2, Atlantic cod estrogen receptor alpha (gmEra) LBD; test: Luciferase reporter gene assay, gmEra antagonism (antiestrogenic activity), coexposure with 3 nM EE2; type: cell-based; details: for antiestrogenic effect on gmEra, result in words: coexposure with EE2 (3 nM, EC20)
Procedure: as §1
To investigate potential antiestrogenic effects, COS-7 cells transiently expressing gmEra LBD were exposed to the 12 bisphenols in binary mixtures with a fixed concentration of EE2 (3 nM, corresponding to EC20) (Figure 2 and Table 1).
as §2

[6] = target: T1, Atlantic cod androgen receptor alpha (gmAra) LBD; test: Luciferase reporter gene assay, gmAra agonism (androgenic activity) in transfected COS-7 cells; details: fold activation in luciferase activity vs solvent control; 24 h exposure; a = plateau not reached
Procedure: as §1
Figure 3 Androgenic activity of bisphenols. COS-7 cells were transiently transfected with gmAra LBD and exposed individually to 12 bisphenol analogs at increasing concentrations. […] The dose–response curves were created using nonlinear regression and the four-parameter logistic fit in Graphpad Prism v.9. For comparison, the dose–response curve of BPA (black line) is indicated together with each individual BP tested (red line). *p < 0.05 versus solvent control by one-way ANOVA and Dunnett’s multiple comparison post hoc test.

[7] = antiandrogenic reporter assay conditions (with testosterone), highest concentration used
[8] = gmEra EC50, four-parameter logistic fit, 24 h exposure

In the case of `CC(C)c1cc(C(C)(C)c2ccc(O)c(C(C)C)c2)ccc1O` [BPG], the “effect on testosterone-mediated gmAra activity, result in words” value [1] was “significantly decrease the testosterone-mediated Ara-activity”, the pIC50 [1] was 6.70 and the “Vtg synthesis in PCLS, result in words” value [2] was “able to induce Vtg synthesis in PCLS”. The “cytotoxic concentration in COS-7 cells” value [3, 7] was 50 µM and the “concentration that affected COS-7 cell viability” value ([3]; highest concentration used) was 50 µM.

In the case of `CCC(C)(c1ccc(O)cc1)c1ccc(O)cc1` [BPB], the pEC50 [4, 8] was 5.80 and the “antiestrogenic effect on gmEra, result in words” value (from here on “antiestrogenic effect on gmEra”) [5] was “no antiestrogenic effects”.

For `Oc1ccc(Cc2ccc(O)cc2)cc1` [BPF], the pEC50 [4, 8] was 5.42, the “antiestrogenic effect on gmEra” value [5] was “no antiestrogenic effects” and the “Vtg synthesis in PCLS, result in words” value [2] was “induced the highest Vtg-levels ex vivo”.

For `O=S(=O)(c1ccc(O)cc1)c1ccc(O)cc1` [BPS], the pEC50 [4, 8] was 4.08 and the “antiestrogenic effect on gmEra” value [5] was “no antiestrogenic effects”.

`CC(C)C(=O)Nc1ccc([N+](=O)[O-])c(C(F)(F)F)c1` [flutamide, reference compound] was tested, and the pIC50 [1] was roughly 6.15.

For `C[C@]12CC[C@H]3[C@@H](CCC4=CC(=O)CC[C@@]43C)[C@@H]1CC[C@@H]2O` [T, testosterone, reference compound], the “gmAra Emax” value [6] was 42.1 fold activation.

With `Oc1ccc(C2(c3ccc(O)cc3)CCCCC2)cc1` [BPZ] the “effect on testosterone-mediated gmAra activity, result in words” value [1] was “significantly decrease the testosterone-mediated Ara-activity”, the pIC50 [1] was 6.06 and the “effect on testosterone-mediated gmAra activity at lower concentrations, result in words” value ([1]; lower concentrations used (3–80 nM) with 5 nM testosterone) was “significant increases in gmAr activity”. The “Vtg synthesis in PCLS, result in words” value [2] was “only moderate and not statistically significant”, the “concentration at which maximum Vtg levels were observed” value [2] was 10 µM and the “cytotoxic concentration in COS-7 cells” value [3, 7] was 50 µM. For the same molecule, the “concentration that affected COS-7 cell viability” value ([3]; highest concentration used) was 50 µM.

In the case of `CC1CC(C)(C)CC(c2ccc(O)cc2)(c2ccc(O)cc2)C1` (centres unmarked) [BPTMC], the “effect on testosterone-mediated gmAra activity, result in words” value [1] was “significantly decrease the testosterone-mediated Ara-activity”, the pIC50 [1] was 5.76 and the “concentration at which maximum Vtg levels were observed” value [2] was 10 µM. The “cytotoxic concentration in COS-7 cells” value [3, 7] was 50 µM and the “concentration that affected COS-7 cell viability” value ([3]; highest concentration used) was 50 µM.

`Oc1ccc(C(=C(Cl)Cl)c2ccc(O)cc2)cc1` [BPC2] showed a pEC50 [4, 8] of 6.70 and a pIC50 [5] of 7.22.

For `Oc1ccc(C(c2ccc(O)cc2)(C(F)(F)F)C(F)(F)F)cc1` [BPAF], the pEC50 [4, 8] was 6.64, the “antiestrogenic effect on gmEra” value [5] was “no antiestrogenic effects” and the “concentration at which maximum Vtg levels were observed” value [2] was 10 µM. For the same molecule, the “cytotoxic concentration in COS-7 cells” value ([3]; African green monkey) was 50 µM.

With `C#C[C@]1(O)CC[C@H]2[C@@H]3CCc4cc(O)ccc4[C@H]3CC[C@@]21C` [EE2, 17α-Ethynylestradiol, reference compound] the maximal fold induction ([4]; COS-7, monkey, 24 h, read-out: gmEra Emax) was 80, the “potency toward gmEra relative to BPA (times more potent)” value ([4]; EE2 compared with BPA) was ~10^3 and the pEC50 [4, 8] was 8.15. For the same molecule, the pEC50 ([4]; gmEra EC50, value given in text) was 8.17, the “gmEra REP50 (relative potency EC50, EC50-bisphenol A/EC50-bisphenol X)” value ([4]; relative to BPA) was 271 and the “Vtg synthesis in PCLS, result in words” value [2] was “increased Vtg-levels in the media in a dose-dependent manner”.
